Test results as given in the supplement of paper PMC9663587.

Experiments:
Paclitaxel = compound: CC(=O)O[C@H]1C(=O)[C@@]2(C)[C@H]([C@H](OC(=O)c3ccccc3)[C@]3(O)C[C@H](OC(=O)[C@H](O)[C@@H](NC(=O)c4ccccc4)c4ccccc4)C(C)=C1C3(C)C)[C@]1(OC(C)=O)CO[C@@H]1C[C@@H]2O [Paclitaxel]
BSJ-03-123 [1] = compound: T1, CC(=O)c1c(C)c2cnc(Nc3ccc(N4CCN(CCOCCOCCOCCNC(=O)COc5cccc6c5C(=O)N(C5CCC(=O)NC5=O)C6=O)CC4)cn3)nc2n(C2CCCC2)c1=O [BSJ-03-123]
INK128/MLN0128 = compound: CC(C)n1nc(-c2ccc3oc(N)nc3c2)c2c(N)ncnc21 [INK128/MLN0128]
[2] = compound: CCN1CCN(Cc2ccc(Nc3ncc(F)c(-c4cc(F)c5nc(C)n(C(C)C)c5c4)n3)nc2)CC1
Neratinib/HKI272 [3] = compound: T2, CCOc1cc2ncc(C#N)c(Nc3ccc(OCc4ccccn4)c(Cl)c3)c2cc1NC(=O)/C=C/CN(C)C [Neratinib/HKI272]
Volasertib/BI6727 = compound: CC[C@@H]1C(=O)N(C)c2cnc(Nc3ccc(C(=O)N[C@H]4CC[C@H](N5CCN(CC6CC6)CC5)CC4)cc3OC)nc2N1C(C)C [Volasertib/BI6727]
LEE011/Ribociclib [4] = compound: T3, CN(C)C(=O)c1cc2cnc(Nc3ccc(N4CCNCC4)cn3)nc2n1C1CCCC1 [LEE011/Ribociclib]
THZ531 = compound: CN(C)C/C=C/C(=O)Nc1ccc(C(=O)N2CCC[C@@H](Nc3ncc(Cl)c(-c4c[nH]c5ccccc45)n3)C2)cc1 [THZ531]
ABT-737 = compound: CN(C)CC[C@H](CSc1ccccc1)Nc1ccc(S(=O)(=O)NC(=O)c2ccc(N3CCN(Cc4ccccc4-c4ccc(Cl)cc4)CC3)cc2)cc1[N+](=O)[O-] [ABT-737]
[5] = compound: COc1ccc2c(c1)[C@]1(C[C@H]1c1ccc3c(/C=C/c4ccc(CN5C[C@@H](C)O[C@@H](C)C5)cc4)n[nH]c3c1)C(=O)N2
Pictilisib/GDC0941 = compound: CS(=O)(=O)N1CCN(Cc2cc3nc(-c4cccc5[nH]ncc45)nc(N4CCOCC4)c3s2)CC1 [Pictilisib/GDC0941]
Ceritinib/LDK378 = compound: Cc1cc(Nc2ncc(Cl)c(Nc3ccccc3S(=O)(=O)C(C)C)n2)c(OC(C)C)cc1C1CCNCC1 [Ceritinib/LDK378]
Taselisib/GDC0032 = compound: Cc1nc(-c2cn3c(n2)-c2ccc(-c4cnn(C(C)(C)C(N)=O)c4)cc2OCC3)n(C(C)C)n1 [Taselisib/GDC0032]
Tivantinib/ARQ197 = compound: O=C1NC(=O)[C@@H](c2cn3c4c(cccc24)CCC3)[C@@H]1c1c[nH]c2ccccc12 [Tivantinib/ARQ197]
YKL-5-124 = compound: C=CC(=O)Nc1ccc(C(=O)Nc2[nH]nc3c2CN(C(=O)N[C@H](CN(C)C)c2ccccc2)C3(C)C)cc1 [YKL-5-124]; assay: GR value, 72 h; higher = faster growth (1 = untreated, <0 = killing);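 also: breast cancer and non-malignant breast epithelial lines, nine half-log doses, viable cells counted by Hoechst and LIVE/DEAD dye imaging versus time-zero plates and DMSO controls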
BSJ-03-123 [6] = compound: T1, BSJ-03-123; assay: as above
[7] = compound: CCN1CCN(Cc2ccc(Nc3ncc(F)c(-c4cc(F)c5nc(C)n(C(C)C)c5c4)n3)nc2)CC1; assay: as above
Neratinib/HKI272 [8] = compound: T2, Neratinib/HKI272; assay: as above
[9] = compound: CCc1cnn2c(NCc3ccc[n+]([O-])c3)cc(N3CCCC[C@H]3CCO)nc12; assay: as above
LEE011/Ribociclib [10] = compound: T3, LEE011/Ribociclib; assay: as above
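For GR50, 72 h in this document: breast cancer and non-malignant breast epithelial cell lines, Deep Dye Drop or Dye Drop imaging, nine half-log doses, GR normalized to time-zero plates and DMSO-only controls.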

ZR751
GR50, 72 h (Paclitaxel): 0.0088 µM | GR50, 72 h (BSJ-03-123 [1]): 3.04 µM | GR50, 72 h (INK128/MLN0128): 0.00782 µM | GR50, 72 h [2]: 0.0666 µM | GR50, 72 h (Neratinib/HKI272 [3]): > 3.16 µM | GR50, 72 h (Volasertib/BI6727): 0.115 µM | GR50, 72 h (LEE011/Ribociclib [4]): 5.42 µM | GR50, 72 h (THZ531): 0.427 µM | GR50, 72 h (ABT-737): > 10 µM | GR50, 72 h [5]: 0.0085 µM | GR50, 72 h (Pictilisib/GDC0941): 0.672 µM | GR50, 72 h (Ceritinib/LDK378): 3.79 µM | GR50, 72 h (Taselisib/GDC0032): 0.277 µM | GR50, 72 h (Tivantinib/ARQ197): 0.657 µM | GR value (YKL-5-124; 0.001 µM): 0.57 GR | GR value (YKL-5-124; 0.003162 µM): 0.342 GR | GR value (YKL-5-124; 0.01 µM): 0.325 GR | GR value (YKL-5-124; 0.03162 µM): 0.282 GR | GR value (YKL-5-124; 0.1 µM): 0.254 GR | GR value (YKL-5-124; 0.3162 µM): 0.238 GR | GR value (YKL-5-124; 1 µM): 0.239 GR | GR value (YKL-5-124; 3.162 µM): 0.223 GR | GR value (YKL-5-124; 10 µM): 0.128 GR | GR value (BSJ-03-123 [6]; 0.001 µM): 0.927 GR | GR value (BSJ-03-123 [6]; 0.003162 µM): 0.911 GR | GR value (BSJ-03-123 [6]; 0.01 µM): 0.863 GR | GR value (BSJ-03-123 [6]; 0.03162 µM): 0.788 GR | GR value (BSJ-03-123 [6]; 0.1 µM): 0.838 GR | GR value (BSJ-03-123 [6]; 0.3162 µM): 0.697 GR | GR value (BSJ-03-123 [6]; 1 µM): 0.625 GR | GR value (BSJ-03-123 [6]; 3.162 µM): 0.617 GR | GR value (BSJ-03-123 [6]; 10 µM): 0.22 GR | GR value ([7]; 0.001 µM): 0.95 GR | GR value ([7]; 0.003162 µM): 0.94 GR | GR value ([7]; 0.01 µM): 0.843 GR | GR value ([7]; 0.03162 µM): 0.604 GR | GR value ([7]; 0.1 µM): 0.461 GR | GR value ([7]; 0.3162 µM): 0.366 GR | GR value ([7]; 1 µM): 0.351 GR | GR value ([7]; 3.162 µM): 0.309 GR | GR value ([7]; 10 µM): 0.38 GR | GR value (Neratinib/HKI272 [8]; 0.0003162 µM): 1.01 GR | GR value (Neratinib/HKI272 [8]; 0.001 µM): 1.03 GR | GR value (Neratinib/HKI272 [8]; 0.003162 µM): 0.972 GR | GR value (Neratinib/HKI272 [8]; 0.01 µM): 1.02 GR | GR value (Neratinib/HKI272 [8]; 0.03162 µM): 0.92 GR | GR value (Neratinib/HKI272 [8]; 0.1 µM): 0.864 GR | GR value (Neratinib/HKI272 [8]; 0.3162 µM): 0.741 GR | GR value (Neratinib/HKI272 [8]; 1 µM): 0.757 GR | GR value (Neratinib/HKI272 [8]; 3.162 µM): 0.733 GR | GR value ([9]; 0.0001 µM): 1.03 GR | GR value ([9]; 0.0003162 µM): 1.04 GR | GR value ([9]; 0.001 µM): 1.02 GR | GR value ([9]; 0.003162 µM): 0.969 GR | GR value ([9]; 0.01 µM): 1.02 GR | GR value ([9]; 0.03162 µM): 0.644 GR | GR value ([9]; 0.1 µM): -0.456 GR | GR value ([9]; 0.3162 µM): -0.359 GR | GR value ([9]; 1 µM): -0.434 GR | GR value (LEE011/Ribociclib [10]; 0.001 µM): 0.912 GR | GR value (LEE011/Ribociclib [10]; 0.003162 µM): 0.814 GR | GR value (LEE011/Ribociclib [10]; 0.01 µM): 0.881 GR | GR value (LEE011/Ribociclib [10]; 0.03162 µM): 0.801 GR | GR value (LEE011/Ribociclib [10]; 0.1 µM): 0.812 GR | GR value (LEE011/Ribociclib [10]; 0.3162 µM): 0.667 GR | GR value (LEE011/Ribociclib [10]; 1 µM): 0.737 GR | GR value (LEE011/Ribociclib [10]; 3.162 µM): 0.603 GR | GR value (LEE011/Ribociclib [10]; 10 µM): 0.351 GR

MDAMB330
GR50, 72 h (Paclitaxel): 0.00423 µM | GR50, 72 h (BSJ-03-123 [1]): 0.297 µM | GR50, 72 h (INK128/MLN0128): 0.00601 µM | GR50, 72 h [2]: 0.00409 µM | GR50, 72 h (Neratinib/HKI272 [3]): 0.00221 µM | GR50, 72 h (Volasertib/BI6727): 0.0032 µM | GR50, 72 h (LEE011/Ribociclib [4]): < 0.001 µM | GR50, 72 h (THZ531): 0.0247 µM | GR50, 72 h (ABT-737): 2.07 µM | GR50, 72 h [5]: 0.00542 µM | GR50, 72 h (Pictilisib/GDC0941): 0.293 µM | GR50, 72 h (Ceritinib/LDK378): 1.13 µM | GR50, 72 h (Taselisib/GDC0032): 0.00814 µM | GR50, 72 h (Tivantinib/ARQ197): 0.661 µM | GR value (YKL-5-124; 0.001 µM): 0.265 GR | GR value (YKL-5-124; 0.003162 µM): 0.245 GR | GR value (YKL-5-124; 0.01 µM): 0.149 GR | GR value (YKL-5-124; 0.03162 µM): 0.177 GR | GR value (YKL-5-124; 0.1 µM): 0.133 GR | GR value (YKL-5-124; 0.3162 µM): -0.0197 GR | GR value (YKL-5-124; 1 µM): 0.0836 GR | GR value (YKL-5-124; 3.162 µM): 0.0626 GR | GR value (YKL-5-124; 10 µM): -0.732 GR | GR value (BSJ-03-123 [6]; 0.001 µM): 0.928 GR | GR value (BSJ-03-123 [6]; 0.003162 µM): 0.827 GR | GR value (BSJ-03-123 [6]; 0.01 µM): 0.847 GR | GR value (BSJ-03-123 [6]; 0.03162 µM): 0.727 GR | GR value (BSJ-03-123 [6]; 0.1 µM): 0.637 GR | GR value (BSJ-03-123 [6]; 0.3162 µM): 0.403 GR | GR value (BSJ-03-123 [6]; 1 µM): 0.337 GR | GR value (BSJ-03-123 [6]; 3.162 µM): 0.277 GR | GR value (BSJ-03-123 [6]; 10 µM): -0.101 GR | GR value ([7]; 0.001 µM): 0.797 GR | GR value ([7]; 0.003162 µM): 0.615 GR | GR value ([7]; 0.01 µM): 0.306 GR | GR value ([7]; 0.03162 µM): 0.178 GR | GR value ([7]; 0.1 µM): 0.197 GR | GR value ([7]; 0.3162 µM): 0.241 GR | GR value ([7]; 1 µM): 0.202 GR | GR value ([7]; 3.162 µM): 0.199 GR | GR value ([7]; 10 µM): -0.0587 GR | GR value (Neratinib/HKI272 [8]; 0.0003162 µM): 0.967 GR | GR value (Neratinib/HKI272 [8]; 0.001 µM): 0.831 GR | GR value (Neratinib/HKI272 [8]; 0.003162 µM): 0.218 GR | GR value (Neratinib/HKI272 [8]; 0.01 µM): -0.306 GR | GR value (Neratinib/HKI272 [8]; 0.03162 µM): -0.546 GR | GR value (Neratinib/HKI272 [8]; 0.1 µM): -0.592 GR | GR value (Neratinib/HKI272 [8]; 0.3162 µM): -0.599 GR | GR value (Neratinib/HKI272 [8]; 1 µM): -0.656 GR | GR value (Neratinib/HKI272 [8]; 3.162 µM): -0.62 GR | GR value ([9]; 0.0001 µM): 1.02 GR | GR value ([9]; 0.0003162 µM): 1.09 GR | GR value ([9]; 0.001 µM): 1.09 GR | GR value ([9]; 0.003162 µM): 1.08 GR | GR value ([9]; 0.01 µM): 1.02 GR | GR value ([9]; 0.03162 µM): -0.513 GR | GR value (LEE011/Ribociclib [10]; 0.001 µM): 0.451 GR | GR value (LEE011/Ribociclib [10]; 0.003162 µM): 0.229 GR | GR value (LEE011/Ribociclib [10]; 0.01 µM): 0.361 GR | GR value (LEE011/Ribociclib [10]; 0.03162 µM): 0.14 GR | GR value (LEE011/Ribociclib [10]; 0.1 µM): 0.106 GR | GR value (LEE011/Ribociclib [10]; 0.3162 µM): -0.116 GR | GR value (LEE011/Ribociclib [10]; 1 µM): 0.15 GR | GR value (LEE011/Ribociclib [10]; 3.162 µM): 0.292 GR | GR value (LEE011/Ribociclib [10]; 10 µM): 0.293 GR
